According to ChEMBL document CHEMBL1201862, “PubChem BioAssay data set” (2004):
Calls of active or inactive are those of the source.

Assays:
[1] = target: T1, Low molecular weight phosphotyrosine protein phosphatase (Homo sapiens, UniProt P24666); format: functional; conditions: read-out: IC50_Mean
[2] = target: T1, Low molecular weight phosphotyrosine protein phosphatase; format: functional; conditions: read-out: IC50_Mean; remark: listed apart in the source
[3] = target: T2, Oxysterols receptor LXR-beta (Homo sapiens, UniProt P55055); format: functional, cell-based;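 note: agonist activity at LXR measured by a cell-based luminescence readout across a dose range, run as a counterscreen for daf-12 agonists; HEK293 cells with Gal4-LXR fusion and GAL4-driven luciferase reporter; potency for activation of Gal4-LXR reporter so compounds are agonists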
T2 sequence (P55055 whole entry): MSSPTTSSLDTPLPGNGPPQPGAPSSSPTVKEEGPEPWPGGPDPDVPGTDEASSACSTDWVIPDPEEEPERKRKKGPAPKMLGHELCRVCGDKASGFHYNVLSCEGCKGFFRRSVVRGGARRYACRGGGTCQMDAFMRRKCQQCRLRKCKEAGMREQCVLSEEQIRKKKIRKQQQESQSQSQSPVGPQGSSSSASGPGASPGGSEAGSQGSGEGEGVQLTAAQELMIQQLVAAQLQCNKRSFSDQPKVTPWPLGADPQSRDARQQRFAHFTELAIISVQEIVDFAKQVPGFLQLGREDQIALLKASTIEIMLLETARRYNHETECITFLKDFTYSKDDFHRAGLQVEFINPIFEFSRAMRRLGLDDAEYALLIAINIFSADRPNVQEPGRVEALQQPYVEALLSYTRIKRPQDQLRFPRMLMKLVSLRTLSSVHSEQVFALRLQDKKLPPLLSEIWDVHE

Fatty acid synthase [4] = target: T3, Fatty acid synthase (Homo sapiens, UniProt P49327); test: inhibition of human FAS-TE enzyme activity – biochemical, kinetic fluorescence intensity, dose response (AID 624326); format: functional;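 note: rate of fluorescence rise from hydrolysis of a fluorogenic O-methyl fluorescein ester substrate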
T3 sequence (P49327 whole entry): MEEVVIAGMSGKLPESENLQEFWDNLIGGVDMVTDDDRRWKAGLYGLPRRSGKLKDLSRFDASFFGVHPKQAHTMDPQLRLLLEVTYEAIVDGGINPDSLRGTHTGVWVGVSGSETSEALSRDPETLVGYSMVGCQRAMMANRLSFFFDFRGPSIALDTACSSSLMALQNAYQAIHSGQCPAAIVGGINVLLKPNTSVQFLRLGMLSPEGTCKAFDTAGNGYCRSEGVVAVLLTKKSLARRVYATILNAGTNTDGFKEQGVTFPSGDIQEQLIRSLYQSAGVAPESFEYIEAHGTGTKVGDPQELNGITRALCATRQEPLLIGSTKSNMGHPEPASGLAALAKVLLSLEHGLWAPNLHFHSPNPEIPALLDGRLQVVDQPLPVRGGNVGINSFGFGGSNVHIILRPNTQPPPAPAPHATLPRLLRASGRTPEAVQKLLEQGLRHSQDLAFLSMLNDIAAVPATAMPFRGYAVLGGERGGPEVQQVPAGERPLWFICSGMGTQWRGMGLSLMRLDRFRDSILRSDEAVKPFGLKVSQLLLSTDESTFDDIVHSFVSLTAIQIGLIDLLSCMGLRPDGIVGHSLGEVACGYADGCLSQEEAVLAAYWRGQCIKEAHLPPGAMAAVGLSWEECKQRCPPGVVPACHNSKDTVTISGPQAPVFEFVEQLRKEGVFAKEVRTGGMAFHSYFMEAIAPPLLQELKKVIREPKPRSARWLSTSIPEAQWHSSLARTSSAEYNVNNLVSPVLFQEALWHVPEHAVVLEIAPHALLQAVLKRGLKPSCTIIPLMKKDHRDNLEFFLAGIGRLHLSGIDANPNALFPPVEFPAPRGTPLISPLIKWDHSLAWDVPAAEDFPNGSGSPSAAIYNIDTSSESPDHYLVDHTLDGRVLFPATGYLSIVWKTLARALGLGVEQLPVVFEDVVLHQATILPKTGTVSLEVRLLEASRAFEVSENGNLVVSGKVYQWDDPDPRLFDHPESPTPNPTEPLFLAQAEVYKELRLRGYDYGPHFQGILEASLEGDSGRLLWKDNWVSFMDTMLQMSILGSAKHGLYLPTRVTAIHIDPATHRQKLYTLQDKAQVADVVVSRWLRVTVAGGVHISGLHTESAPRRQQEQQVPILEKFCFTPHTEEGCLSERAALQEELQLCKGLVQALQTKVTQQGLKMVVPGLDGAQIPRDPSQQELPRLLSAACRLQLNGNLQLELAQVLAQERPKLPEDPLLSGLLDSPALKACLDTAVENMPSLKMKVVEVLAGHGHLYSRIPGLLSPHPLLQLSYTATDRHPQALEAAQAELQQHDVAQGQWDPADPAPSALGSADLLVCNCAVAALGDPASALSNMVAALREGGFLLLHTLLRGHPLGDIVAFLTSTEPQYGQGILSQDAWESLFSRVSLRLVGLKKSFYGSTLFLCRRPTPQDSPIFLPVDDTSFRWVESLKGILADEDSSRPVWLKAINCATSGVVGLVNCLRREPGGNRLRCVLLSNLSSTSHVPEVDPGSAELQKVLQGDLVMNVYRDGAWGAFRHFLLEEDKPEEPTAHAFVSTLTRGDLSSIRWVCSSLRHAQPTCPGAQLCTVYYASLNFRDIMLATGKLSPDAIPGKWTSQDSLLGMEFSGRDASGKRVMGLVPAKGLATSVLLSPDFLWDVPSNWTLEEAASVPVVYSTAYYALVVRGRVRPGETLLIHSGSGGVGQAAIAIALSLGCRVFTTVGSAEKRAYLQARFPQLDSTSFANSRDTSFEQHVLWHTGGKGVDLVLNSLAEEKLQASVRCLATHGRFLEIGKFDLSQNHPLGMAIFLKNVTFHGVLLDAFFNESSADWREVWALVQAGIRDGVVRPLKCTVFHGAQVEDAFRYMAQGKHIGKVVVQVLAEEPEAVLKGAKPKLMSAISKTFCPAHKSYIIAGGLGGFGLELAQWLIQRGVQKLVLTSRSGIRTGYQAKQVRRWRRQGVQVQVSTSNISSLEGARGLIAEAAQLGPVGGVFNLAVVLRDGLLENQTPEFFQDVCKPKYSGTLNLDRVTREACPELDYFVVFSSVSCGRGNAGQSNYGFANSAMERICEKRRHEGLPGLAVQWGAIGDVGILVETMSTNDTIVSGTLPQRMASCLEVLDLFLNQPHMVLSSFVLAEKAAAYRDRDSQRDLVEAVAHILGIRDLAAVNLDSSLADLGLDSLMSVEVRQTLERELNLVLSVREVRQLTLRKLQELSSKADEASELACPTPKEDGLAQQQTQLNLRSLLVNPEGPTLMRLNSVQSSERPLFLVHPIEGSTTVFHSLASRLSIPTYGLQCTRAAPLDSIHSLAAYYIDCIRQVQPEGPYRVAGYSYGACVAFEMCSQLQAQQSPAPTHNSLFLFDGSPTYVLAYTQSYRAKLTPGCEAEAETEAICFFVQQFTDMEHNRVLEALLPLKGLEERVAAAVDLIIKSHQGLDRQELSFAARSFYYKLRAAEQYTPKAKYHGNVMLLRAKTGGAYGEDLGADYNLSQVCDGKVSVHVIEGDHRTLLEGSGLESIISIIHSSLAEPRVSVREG

[5] = viability of uninfected HEp-2 cells – cell-based, HTS, cytotoxicity control for RSV inhibitor project, dose response (AID 2410); format: functional; conditions: human respiratory syncytial virus
Fatty acid synthase [6] = target: T3, Fatty acid synthase; test: inhibition of human FAS-TE enzyme activity – biochemical, endpoint fluorescence intensity, uHTS hits, dose response (AID 624327); format: functional;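 note: fluorescence from hydrolysis of an O-methyl fluorescein acyl ester substrate by the enzyme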
cells = format: functional, cell-based
[7] = target: T4, Nuclear receptor subfamily 0 group B member 1 (Homo sapiens, UniProt P51843); format: functional, cell-based
T4 sequence (P51843 whole entry): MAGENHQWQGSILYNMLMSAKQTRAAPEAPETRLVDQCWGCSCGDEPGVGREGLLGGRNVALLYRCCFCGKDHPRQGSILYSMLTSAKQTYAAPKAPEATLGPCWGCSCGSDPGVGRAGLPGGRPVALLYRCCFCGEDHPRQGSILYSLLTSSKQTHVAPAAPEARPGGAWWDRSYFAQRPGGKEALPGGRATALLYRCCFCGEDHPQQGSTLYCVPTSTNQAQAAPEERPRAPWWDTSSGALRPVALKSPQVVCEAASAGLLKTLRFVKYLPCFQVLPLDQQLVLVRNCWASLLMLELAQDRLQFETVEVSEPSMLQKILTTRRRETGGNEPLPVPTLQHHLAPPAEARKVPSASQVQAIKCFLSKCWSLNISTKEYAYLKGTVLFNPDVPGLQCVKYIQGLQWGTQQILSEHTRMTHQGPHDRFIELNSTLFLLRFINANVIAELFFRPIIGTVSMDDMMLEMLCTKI

[8] = target: T5, Probable nicotinate-nucleotide adenylyltransferase (Staphylococcus aureus (strain N315), UniProt P65502); format: functional, Staphylococcus aureus subsp. aureus N315;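 for IC50 Mean: confirmatory dose-response retesting of NadD inhibitor hits first found in an ultra-high-throughput screen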
T5 sequence (P65502 whole entry): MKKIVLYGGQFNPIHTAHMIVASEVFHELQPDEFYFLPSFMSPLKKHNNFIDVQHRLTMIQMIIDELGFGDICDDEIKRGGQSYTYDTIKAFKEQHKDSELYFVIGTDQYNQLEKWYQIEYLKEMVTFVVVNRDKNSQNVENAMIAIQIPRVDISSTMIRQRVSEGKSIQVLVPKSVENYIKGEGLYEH

[9] = target: T5, Probable nicotinate-nucleotide adenylyltransferase; format: functional, Staphylococcus aureus subsp. aureus N315; conditions: read-out: IC50_Mean
[10] = inhibition of ADAM10 peptide cleavage – biochemical, FRET peptide substrate, recombinant human ADAM10, selectivity assay for ADAM17 exosite inhibitor project, dose response (AID 743259);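 note: ADAM10 enzyme cleaving a FRET peptide substrate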
[11] = Luminescence Cell-Based Dose Retest to Confirm Inhibitors of Cancer Stem Cells. [Related pubchem assays (depositor defined):AID2717, AID2721]; format: functional; conditions: Homo sapiens
[12] = target: Disintegrin and metalloproteinase domain-containing protein 17 (Homo sapiens, UniProt P78536); test: exosite inhibitors of ADAM17, dose response, biochemical (AID 743260)
Sequence of Disintegrin and metalloproteinase domain-containing protein 17 (P78536 whole entry, the tested form may be a part): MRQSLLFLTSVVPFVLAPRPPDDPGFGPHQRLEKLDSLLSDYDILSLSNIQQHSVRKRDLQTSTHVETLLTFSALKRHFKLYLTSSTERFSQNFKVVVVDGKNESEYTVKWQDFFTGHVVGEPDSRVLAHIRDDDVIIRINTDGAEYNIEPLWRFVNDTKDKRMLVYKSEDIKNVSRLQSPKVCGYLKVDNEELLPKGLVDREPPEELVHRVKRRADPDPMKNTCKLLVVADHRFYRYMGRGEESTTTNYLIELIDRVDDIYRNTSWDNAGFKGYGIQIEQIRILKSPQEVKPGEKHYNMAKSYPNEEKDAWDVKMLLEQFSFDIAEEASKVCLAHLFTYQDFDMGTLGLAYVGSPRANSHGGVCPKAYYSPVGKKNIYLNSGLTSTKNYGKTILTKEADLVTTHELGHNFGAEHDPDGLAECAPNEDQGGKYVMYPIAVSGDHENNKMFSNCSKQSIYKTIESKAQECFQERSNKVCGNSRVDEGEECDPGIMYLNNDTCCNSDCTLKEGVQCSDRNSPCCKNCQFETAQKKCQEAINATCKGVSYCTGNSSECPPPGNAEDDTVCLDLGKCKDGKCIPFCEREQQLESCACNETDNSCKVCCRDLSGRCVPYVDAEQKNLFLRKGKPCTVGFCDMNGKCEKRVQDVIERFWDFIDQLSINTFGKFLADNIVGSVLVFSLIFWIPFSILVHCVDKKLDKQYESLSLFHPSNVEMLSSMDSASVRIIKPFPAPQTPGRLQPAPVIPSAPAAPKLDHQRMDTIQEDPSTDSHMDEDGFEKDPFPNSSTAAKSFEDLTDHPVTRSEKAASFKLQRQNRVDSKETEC

Vero = test: viability loss in Vero cells – cell-based, plate reader, cherry-pick samples, cytotoxicity control, dose response (AID 687020); format: functional; conditions: Chlorocebus sabaeus
Caspase-6 = target: T6, Caspase-6 (Homo sapiens, UniProt P55212); test: inhibition of CASP6 peptide cleavage – biochemical, VEID-R110 fluorescence, cherry-pick, dose response (AID 720632)
T6 sequence (P55212 whole entry): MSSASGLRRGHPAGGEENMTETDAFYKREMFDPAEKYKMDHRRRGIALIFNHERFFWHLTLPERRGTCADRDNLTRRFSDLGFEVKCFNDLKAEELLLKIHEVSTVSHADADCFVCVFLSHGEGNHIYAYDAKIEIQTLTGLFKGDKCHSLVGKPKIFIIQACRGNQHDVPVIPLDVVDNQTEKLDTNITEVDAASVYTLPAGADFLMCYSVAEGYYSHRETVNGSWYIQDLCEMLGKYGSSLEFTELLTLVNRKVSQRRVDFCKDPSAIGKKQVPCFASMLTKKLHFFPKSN

Beta-lactamase [13] = target: T7, Beta-lactamase (Pseudomonas aeruginosa, UniProt Q79MP6); test: inhibition of IMP-1 beta-lactamase activity – biochemical, epi-absorbance, selectivity assay for VIM-2 inhibitor project, dose response (AID 1920)
T7 sequence (Q79MP6 whole entry): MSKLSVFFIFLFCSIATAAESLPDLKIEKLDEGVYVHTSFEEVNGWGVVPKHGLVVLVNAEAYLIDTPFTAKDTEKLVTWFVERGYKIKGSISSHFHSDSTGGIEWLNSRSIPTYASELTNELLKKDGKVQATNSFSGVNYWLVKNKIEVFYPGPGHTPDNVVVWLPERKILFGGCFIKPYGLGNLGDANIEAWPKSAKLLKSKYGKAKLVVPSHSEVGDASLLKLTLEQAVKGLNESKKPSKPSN

Beta-lactamase [14] = target: Beta-lactamase (Salmonella choleraesuis (strain SC-B67), UniProt Q5J463); test: Epi-absorbance-based counterscreen for selective VIM-2 inhibitors: dose response biochemical high throughput screening assay to identify inhibitors of TEM-1 serine-beta-lactamase.
Sequence of Beta-lactamase (Salmonella choleraesuis (strain SC-B67), UniProt Q5J463) (Q5J463 whole entry): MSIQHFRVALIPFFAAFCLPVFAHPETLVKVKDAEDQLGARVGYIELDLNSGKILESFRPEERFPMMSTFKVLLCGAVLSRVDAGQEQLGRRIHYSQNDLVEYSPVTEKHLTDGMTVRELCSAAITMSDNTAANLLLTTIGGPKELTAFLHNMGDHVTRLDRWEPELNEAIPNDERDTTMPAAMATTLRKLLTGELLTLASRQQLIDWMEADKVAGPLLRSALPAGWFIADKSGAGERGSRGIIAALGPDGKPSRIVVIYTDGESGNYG

Beta-lactamase [15] = target: T7, Beta-lactamase; test: […] counterscreen for selective VIM-2 inhibitors: dose response biochemical high throughput screening assay to identify inhibitors of IMP-1 metallo-beta-lactamase.
[16] = target: T4, Nuclear receptor subfamily 0 group B member 1; test: Luminescence-based cell-based high throughput dose response assay for inhibitors of the orphan nuclear receptor subfamily 0, group B, member 1 (DAX1; NR0B1). [Related pubchem assays (depositor defined):AID504766, AID504790]; format: functional
HEK293 = test: cells; format: functional, cell-based; conditions: Homo sapiens
[17] = viability loss in HepG2 hepatoma cells – cell-based, ATP luminescence, cherry-pick, activator set 2, cytotoxicity control, dose response (AID 1053143); format: functional
[18] = tested on: Streptococcus sp. 'group A'; test: Streptococcus pyogenes SK(-)GAS viability under kanamycin – luminescence, BacTiterGlo, confirmation, counter-screen for streptokinase expression inhibitor project, dose response (AID 1900); format: functional, organism-based
Streptococcus = test: GAS UMAA2166 growth inhibition – luminescence, BacTiterGlo, counter-screen for streptokinase expression inhibitor project, dose response (AID 1915); format: functional, organism-based;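 note: potency for reduction of bacterial viability or growth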
Streptokinase A = target: T8, Streptokinase A (Streptococcus pyogenes serotype M1, UniProt P10520); test: viability-normalized secreted streptokinase activity reduction – plasminogen activation absorbance, OD405, dose response (AID 1914); format: functional, Streptococcus pyogenes M1 GAS;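 note: secreted streptokinase activity via plasminogen activation per viability signal from cell pellet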
T8 sequence (P10520 whole entry): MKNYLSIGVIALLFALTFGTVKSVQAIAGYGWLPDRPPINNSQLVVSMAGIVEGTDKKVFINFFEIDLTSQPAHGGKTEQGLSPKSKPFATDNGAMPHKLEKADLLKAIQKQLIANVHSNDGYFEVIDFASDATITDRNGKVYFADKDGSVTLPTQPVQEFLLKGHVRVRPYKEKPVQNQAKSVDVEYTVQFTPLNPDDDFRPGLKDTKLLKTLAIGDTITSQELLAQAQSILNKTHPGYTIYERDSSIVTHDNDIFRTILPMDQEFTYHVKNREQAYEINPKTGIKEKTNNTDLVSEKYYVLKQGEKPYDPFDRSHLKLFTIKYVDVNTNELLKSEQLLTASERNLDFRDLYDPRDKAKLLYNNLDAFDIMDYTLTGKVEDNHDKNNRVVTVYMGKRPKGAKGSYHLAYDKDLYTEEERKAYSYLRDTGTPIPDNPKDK

[19] = target: Matrix metalloproteinase-14 (Homo sapiens, UniProt P50281); test: Dose Response confirmation of uHTS hits for a small molecule inhibitors of MT1-MMP activation in a fluorescence assay set 1.; format: functional
Nonstructural protein 1 = Nonstructural protein 1 (Influenza A virus, UniProt Q194T2); format: functional, Influenza A virus (A/California/07/2009(H1N1))
Sequence of Nonstructural protein 1 (Q194T2 whole entry): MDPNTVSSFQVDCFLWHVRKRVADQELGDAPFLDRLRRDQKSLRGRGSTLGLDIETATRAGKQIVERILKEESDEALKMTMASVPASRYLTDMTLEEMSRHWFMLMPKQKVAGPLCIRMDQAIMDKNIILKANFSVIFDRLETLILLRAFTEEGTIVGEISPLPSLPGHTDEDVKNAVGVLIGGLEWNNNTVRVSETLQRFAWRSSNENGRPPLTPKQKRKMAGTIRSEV

T1 sequence (P24666 whole entry): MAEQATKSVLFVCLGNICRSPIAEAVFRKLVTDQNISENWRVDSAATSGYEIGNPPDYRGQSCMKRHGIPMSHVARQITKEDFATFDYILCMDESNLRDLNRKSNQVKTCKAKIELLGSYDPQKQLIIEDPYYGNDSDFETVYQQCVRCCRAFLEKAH

CN(C)c1cc(-c2ccc(Cl)c(Cl)c2)oc(=O)c1Cl
IC50 [1]: 8.63 µM (active)
IC50 [2]: 35.4 µM (inactive)

Cc1cc(NC(=O)c2nn3cccnc3c2Cl)no1
EC50 [3]: > 67.5 µM (inactive)

O=S(=O)(Nc1cccc(-c2ccc(N3CCCCCC3)nn2)c1)c1ccccc1F
IC50 (Fatty acid synthase [4]): 6.9 µM (active)
CC50 [5]: > 50 µM (active)
IC50 (Fatty acid synthase [6]): 7.03 µM (active)
IC50 (cells): > 67.6 µM (inactive)
IC50 [7]: > 67.6 µM (inactive)

CCOC(=O)C1=C(C)c2ccccc2N(C(=O)OC)C1(C)C(=O)OCC (stereo unspecified)
IC50 [8]: 15.6 µM (active)
IC50 [9]: 34.6 µM (active)

Nc1cc(Cl)ccc1Oc1ccc2ccccc2c1
IC50 [10]: 29.6 µM (inactive)
AC50 [11]: 5.81 µM (active)
IC50 [12]: > 69.5 µM (inactive)

Cc1c(C(=O)N2CCCC2)oc2ccc(Br)cc12
AC50 (Vero): 35.1 µM (active)
AC50 (Caspase-6): 23.5 µM (active)

Sc1nnc(-c2ccccc2)n1Cc1ccccc1
IC50 (Beta-lactamase [13]): > 59.6 µM (inactive)
IC50 (Beta-lactamase [14]): > 59.6 µM (inactive)
IC50 (Beta-lactamase [15]): > 59.6 µM (inactive)

Cc1ccc(NC(=O)c2ccc(Cl)cc2Cl)cc1O
IC50 [16]: > 67.6 µM (inactive)
IC50 (HEK293): > 67.6 µM (inactive)
AC50 [17]: 26 µM (active)

Nc1nc(-c2ccccc2)c(N=Nc2cccc3ccccc23)s1
EC50 [18]: 4.14 µM (active)
EC50 (Streptococcus): > 150 µM (not active)
EC50 (Streptokinase A): > 150 µM (not active)
IC50 [19]: 31.3 µM (inactive)
IC50 (Nonstructural protein 1): 9.98 µM (active)
